Molecules are shown by their SMILES.

The target in the test is T1, human active recombinant p38α-6His tagged (Homo sapiens, UniProt Q16539).
T1 construct: 6His
T1 sequence (Q16539 whole entry): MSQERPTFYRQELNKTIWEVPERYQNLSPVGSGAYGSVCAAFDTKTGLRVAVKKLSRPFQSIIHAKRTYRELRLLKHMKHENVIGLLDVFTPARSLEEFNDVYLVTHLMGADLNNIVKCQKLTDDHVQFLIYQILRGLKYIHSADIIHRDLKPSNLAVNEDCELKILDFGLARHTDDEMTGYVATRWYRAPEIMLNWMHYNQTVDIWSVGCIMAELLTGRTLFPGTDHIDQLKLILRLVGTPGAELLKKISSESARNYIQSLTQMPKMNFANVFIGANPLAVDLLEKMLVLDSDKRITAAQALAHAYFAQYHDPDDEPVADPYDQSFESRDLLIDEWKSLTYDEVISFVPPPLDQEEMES
Briefly: P38 alpha enzyme assay (AlphaScreen, biotinylated-ATF2 substrate). It counts as biochemical. The conditions noted are these: 4 hours pre-incubation at 37° C., 1 mM ATP added. As for the experimental part: Enzyme assays were performed in polypropylene 96 well plates. The following solutions were added to each well; 10 μL of compound dilutions in assay buffer (20 mM HEPES pH 7.4, containing 20 mM magnesium acetate, 0.005% (w/v) Tween-20, 10 mM DTT) containing 1% (v/v) DMSO or assay buffer containing 1% (v/v) DMSO alone, 70 μL of assay buffer containing 36 nM substrate (biotinylated-ATF2) and 10 μL of an appropriate dilution of human active recombinant p38α-6His tagged. Depending on batch of p38, an appropriate dilution was typically a 5 nM solution to give a final enzyme concentration of 0.5 nM. At this stage, background control wells also received 50 μL of AlphaScreen quench buffer (10 mM HEPES pH 7.4 containing 100 mM EDTA, 0.2% (w/v) bovine serum albumin). The plate was covered, pre-incubated for 4 hours at 37° C. and the enzyme reaction initiated by addition of 10 μL 1 mM ATP. After incubation for a further 45 minutes at 37° C., the reaction was stopped by addition of 50 μL quench reagent and 50 μL of the quenched reaction mixture transferred to an opaque, white 96-well plate. Detection reagent, 25 μL of 10 mM HEPES pH 7.4 containing 100 mM EDTA, 0.2% (w/v) bovine serum albumin, 0.3 nM anti phosphoATF2 antibody and 25 μg/mL of AlphaScreen protein A acceptor and donor beads, was added to all wells in a darkened room, the plate sealed and left in the dark for between 5 and 24 hours before AlphaScreen readings were taken using a Perkin Elmer EnVision reader.
For orientation: In Alpha technology, singlet oxygen from a donor bead excites a nearby acceptor bead.
As for `Cc1ccc(NC(=O)c2cccc(N3CCCCC3)c2)cc1-n1ccc2ccc(OCCN3CCCC3)cc2c1=O` [Example 1, N-{4-Methyl-3-[1-oxo-7-(2-pyrrolidin-1-ylethoxy)isoquinolin-2(1H)-yl]phenyl}-3-piperidin-1-ylbenzamide], the IC50 is 10 nM.
Consider `Cc1ccc(NC(=O)c2ccnc(N3CCCC3)c2)cc1-n1ccc2ccc(OCCN3CCCC3)cc2c1=O` [Example 5, N-{4-Methyl-3-[1-oxo-7-(2-pyrrolidin-1-ylethoxy)isoquinolin-2(1H)-yl]phenyl}-2-pyrrolidin-1-ylisonicotinamide], for which the IC50 was 2 nM.
For `Cc1ccc(NC(=O)c2ccnc(-c3cccs3)c2)cc1-n1ccc2ccc(OCCN(C)C)cc2c1=O` [Example 9, N-{3-[7-[2-(dimethylamino)ethoxy]-1-oxoisoquinolin-2(1H)-yl]-4-methylphenyl}-2-(2-thienyl)isonicotinamide], the IC50 is 0.2 nM.
Consider `Cc1ccc(NC(=O)c2cccc(-c3cnco3)c2)cc1-n1ccc2ccc(OCCCN3CCCC3)cc2c1=O` [Example 11, N-{4-Methyl-3-[1-oxo-7-(3-pyrrolidin-1-ylpropoxy)isoquinolin-2(1H)-yl]phenyl}-3-(1,3-oxazol-5-yl)benzamide], for which the IC50 was 0.794 nM.

What is called IC50 is the concentration needed to halve the response being measured.

Source of the values: patent publication US20080207596A1, “Novel compounds 329” (priority 2006, published 2008).
